Reference: article PMC4979481, “Functional characterization of the ectopically expressed olfactory receptor 2AT4 in human myelogenous leukemia” (Cell Death Discovery, 2016)

Target: T1, OR2AT4 (olfactory receptor 2AT4) (Homo sapiens, UniProt A6NND4)
T1 sequence (A6NND4 1-320): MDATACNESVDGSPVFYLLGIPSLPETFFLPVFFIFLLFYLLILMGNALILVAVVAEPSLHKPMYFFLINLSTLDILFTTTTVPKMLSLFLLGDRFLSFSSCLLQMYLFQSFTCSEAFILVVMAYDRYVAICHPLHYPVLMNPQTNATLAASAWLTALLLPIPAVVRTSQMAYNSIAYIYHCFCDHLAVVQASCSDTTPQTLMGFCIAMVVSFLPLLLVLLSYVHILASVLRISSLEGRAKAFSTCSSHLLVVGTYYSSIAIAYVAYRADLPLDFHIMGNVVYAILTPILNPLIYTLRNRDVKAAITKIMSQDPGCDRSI
Assay: calcium imaging dose-response in K562 cells (endogenous receptor), blocked by antagonist Phenirat
Assay type: cell-based

- EC50: 265 µM
SMILES: CC1=CCC(CCC(C)C(C)O)C1(C)C (stereo not shown) [Sandalore]
